Assay results: patent US20200164005A1, “PHARMACEUTICAL COMPOSITIONS OF A BILE ACID DERIVATIVE AND MICROBIOME AND USES THEREOF” (Intercept Pharmaceuticals, Inc., priority 2017, published 2020)

Assays:
[1] = system: C4 (7α-hydroxy-4-cholesten-3-one); assay: Plasma C4 level after OCA and its association with microbiome species (GEE); format: in vivo, human
Description: C4 level was measured on 5 mg and 10 mg OCA dose groups. The day 1 pre-dose C4 was used as a match of day 1 microbiome measurement. The average level of C4 from day 4 to day 17 pre-dose was calculated as a match of day 15 or 16 microbiome measurement. The average C4 level on day 30 and day 44 was used as a match of microbiome on day 37. The average of multiple time points was taken to match the three time points of microbiome measurements.
Geeglm(fgf19·log 2˜hour+dose+hour:dose, id=sID, corstr=“exchangeable”) • C4 analysis: The GEE model was applied in association study of C4 and microbiome species. Both C4 and species relative abundance were log 2 transformed before applying GEE model.
Geeglm(species·log 2˜C4·log 2, id=sID, corstr=“exchangeable”)
Twenty-four healthy subjects were randomly assigned to one of three dose groups (5 mg, 10 mg, or 25 mg OCA per day), with each dose group comprising eight subjects (four women and four men). A single oral OCA dose of 5 mg, 10 mg, or 25 mg tablets, depending on the treatment assignment, was administered on Day 1. In the multiple-dose phase, a single oral OCA dose of 5 mg, 10 mg, or 25 mg tablets, in accordance with the assigned treatment, was administered orally once daily for 14 days from Days 4-17. The patients remained at the study site until Day 30, and were followed up until the final visit on Day 44 (FIG. 62A). Fecal specimens were collected at baseline (Day 0), at the end of the multiple-dose phase (Day 17), and at the end of the study (Day 37). Pharmacokinetic blood samples were assessed pre-dose and on Days 1-3, 17, 35, 37, 39, and 44. […] Therefore, plasma C4 levels are a reliable dynamic indicator of the host response to FXR activation by OCA, that leads to the suppression of endogenous bile acid synthesis (Hirschfield et al., Gastroenterology 148, 751-761 e758 (2015); Mudaliar et al., Gastroenterology 145, 574-582 e571 (2013)).

[2] = system: MetaCyc pathways of the gut microbiome; assay: MetaCyc pathway differential abundance analysis of stool metagenome; format: in vivo, human
Description: HUMAnN2 (Abubucker et al., PLoS Comput. Biol. 8, e1002358 (2012)) was used to calculate gene and pathway abundance from metagenomic sequencing data. Uniref50 (UniProt® Consortium, Nucleic Acids Res. 43, D204 (2015)) was used for gene family definition. MetaCyc (Caspi et al., Nucleic Acids Res. 42, D459 (2014)) and KEGG (Kanehisa and Goto, Nucleic Acids Res. 28, 27 (2000); Kanehisa et al., Nucleic Acids Res. 44, D457 (2016)) were used for pathway analysis. • Gene family identification: Initially, 989251 gene families were identified from the dataset by HUMAnN2. Quantile normalization was implemented. For each sample, the RPK values were added up till 90% percentile of all genes (normalization factor, nf). RPK value of each gene in each sample was then divided by the nf of the sample, and multiplied with the mean of nf of all samples. 683270 uncharacterized genes were removed. Genes undetected in over 90% of samples (101994) were removed. 203987 genes were kept. Due to the large number of genes identified, 25% of the most varying genes were selected for further analysis. The most varying genes were defined by the coefficient variation (cv=sd/mean) of log 2 transformed value. • MetaCyc pathway identification: HUMAnN2 identified 567 MetaCyc pathways from the dataset. Quantile normalization was then performed. For each sample, the abundance values were added up till 90% percentile of all pathways (normalization factor, nf). Each pathway abundance in each sample was divided by the nf of the sample, and then multiplied with the mean of nf for all samples. The low abundance pathways (52), which were not detected on over 90% of all samples, were removed. 515 high quality MetaCyc pathways were kept for further analysis. • KEGG pathway identification: HUMAnN2 identified 160 KEGG pathways from the dataset. Quantile normalization was applied, and low abundance pathways were removed. 66 high quality KEGG pathways were kept for further analysis.
gene abundance˜aov(day*OCAdose+error(subject ID)) • Pathway differential abundance analysis: For each of the identified pathways, repeated measure ANOVA was also performed to study the time effect and OCA dose effect on pathway abundance change.
pathway abundance˜aov(day*OCAdose+error(subject ID)) • FGF19 analysis: The GEE model was applied in order to study the relationship of FGF19 change with the microbiome, gene family, and the pathway abundance change over time. The R function geeglm from R package geepack was used for gee modeling. Both FGF19 level and species/gene/pathway relative abundance were log 2 transformed before applying GEE model. […]

CC[C@H]1[C@@H](O)[C@@H]2[C@H](CC[C@]3(C)[C@@H]([C@H](C)CCC(=O)O)CC[C@@H]23)[C@@]2(C)CC[C@@H](O)C[C@@H]12 [OCA, 3α,7α-dihydroxy-6α-ethyl-5β-cholan-24-oic acid] was tested, and the “plasma levels of C4 relative to Day 0 (pre-OCA dose)” value ([1]; Day 16) was “maximally suppressed”, the “plasma levels of C4 at maximal time off OCA” value ([1]; Day 37) was “returned to normal” and the “plasma C4 in response to OCA treatment” value ([1]; serial quantification, repeated measure ANOVA) was “time-dependent reduction”. For the same compound, the “pathways associated with nucleotide and amino acid biosynthesis” value ([2]; OCA treatment) was “enriched”, the “number of MetaCyc pathways differentially abundant over time” value ([2]; out of 515, FDR<0.05 for time effect) was 41 and the “number of MetaCyc pathways with significant time effects” value ([2]; repeated measure ANOVA, FDR<0.01, Example 7) was 135. The “OCA dose effect on MetaCyc pathway abundance” value ([2]; repeated measure ANOVA, FDR<0.05) was “No OCA dose effect or OCA dose×day interaction was observed”.
